The values that follow come from patent US4600705A, “Gonadoliberin derivatives containing a β-aspartyl group, a process for the preparation thereof and pharmaceutical preparations containing them” (Richter Gedeon Veyteszeti Gyar R.T., priority 1983, dated 1986).

In assay [1] the test system is cattle. The assay is described as follows: pregnancy ratio of cattle, dosing simultaneously with insemination. The assay is classed as in vivo. The following applies: same dose (100 μg/dose).
The subject of assay [2] is blue and silver foxes. The assay is described as follows: extra-seasonal rutting of blue and silver foxes. The conditions noted are these: single dose of 10 μg. The assay is classed as in vivo.
The subject of assay [3] is female turkeys. The assay is described as follows: brooding time of female turkeys. It counts as in vivo, turkey.
In assay [4] the test system is sterlet and catfish mother fishes. The assay is described as follows: spawning (roe deposition / ovulation) of sterlet and catfish mother fishes. It counts as in vivo. The following applies: control group under the same conditions.

With “native LH-RH: gonadoliberine, gonadotrop releasing hormone; native hormone used as comparator (QHWSYGLRPG; Gonadoliberin-1; UniProt P01148 24-33, looked up)”, the “effect on the pregnancy ratio (in words)” value in assay [1] is given as “not efficacious”. Further, the extra-seasonal rutting result in assay [2] is “inefficacious”. The brooding time result in assay [3] is “ineffective”.
D-Phe^6, desGly^10 -LH-RH-ethylamide: the “ovulation (in words)” value in assay [4] is reported as “no ovulation occurred”.
